These results are taken from US20250339569A1, “CARBONIC ANHYDRASE IX LIGANDS” (priority 2021, published 2025).

Where two headings read alike, the source gives them in different places. Starred links: 1 amine or outer side, 2 acyl side, 3 side chain; linkers in the order of their positions; H or OH if unused. Positions of bridges follow the written chain, without caps; N, C: chain ends. Non-standard residues stand in square brackets, D forms with d. Residues, ends and D or L forms follow the SMILES beside them. *: point of attachment. NH(CH2)3NHDOTA = O=C(O)CN1CCN(CC(=O)O)CCN(CC(=O)NCCCN*)CCN(CC(=O)O)CC1; NH(1-deoxy-D-glucityl) = OC[C@@H](O)[C@@H](O)[C@H](O)[C@@H](O)CN*; DOTA = O=C(O)CN1CCN(CC(=O)O)CCN(CC(=O)*)CCN(CC(=O)O)CC1; mXylylene = c1cc(C[*:1])cc(C[*:2])c1; dOrn(Me2) = CN(C)CCC[C@@H](N)C(=O)O; Orn(Me2) = CN(C)CCC[C@H](N)C(=O)O; X2 = O=C(CN1CCC(N[*:1])CC1)[*:2]; NMeD = CN[C@@H](CC(=O)O)C(=O)O; hSer = N[C@@H](CCO)C(=O)O

Experiment [1] deals with T1, CAIX-expressing human HT-29 colorectal cancer cells (Homo sapiens, UniProt Q16790).
T1 construct: CAIX-expressing human HT-29 colorectal cancer cells; host or cells: HT-29 human colorectal cancer cells
The experiment in a line: FACS binding assay (IC50 determination, competition with tracer 3BP-2776 or 3BP-4149). The settings on record: 4° C., 1 hour, read-out: pIC50 category (activity) (converted). Put shortly:
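HT-29 cells in FACS buffer (PBS, 1% FCS) at 500.000 cells/ml were exposed to compounds competing with a labelled tracer, with biotinylated compounds detected by 1 μg/mL APC-streptavidin for 30 min on ice. APC/Cy5 median fluorescence was read by flow cytometry and IC50 derived by 4PL fit.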
(In general: A flow cytometer gives signals particle by particle.)

The target of experiment [2] is T2, human carbonic anhydrase IX (hCAIX-Fc) (Homo sapiens, UniProt Q16790).
T2 construct: purchased SinoBliological (Sino Biological) 10107-H02H
Briefly: Surface plasmon resonance assay with hCAIX-Fc. The class given is binding. The settings on record: 25° C.; for t1/2 category (activity): SPR dissociation half-life, hCAIX-Fc; for Kd: SPR, hCAIX-Fc captured, read-out: pKD category (activity) (converted). The method, then:
Surface plasmon resonance (SPR) studies were performed using a Biacore™ T200 SPR system (GE Healthcare Life Sciences). Briefly, polarized light is directed towards a gold-labeled sensor surface, and minimum intensity reflected light is detected. The angle of reflected light changes as molecules bind and dissociate.
Fc-fusion protein of human carbonic anhydrase IX (hCAIX-Fc, SinoBliological, Cat #10107-H02H) was captured on a Fc-capture chip (Biacore™ CM5 sensor chip coated with ˜300 RU of an Fc-binding peptide). Recombinant carbonic anydrase was diluted in Running Buffer (PBST, 0.1% DMSO) to a final concentration 100 or 200 nM and than flushed over the Fc-capture chip to immobilized ˜1000 RUs.
Stock solutions of test compounds were prepared by dissolving each compound in DMSO. DMSO stock solution were diluted 1:1000 in Running Buffer without DMSO. Further sequencial dilutions were made with Running Buffer containing 0.1% DMSO. SPR binding analyses were performed in Single Cycle Kinetic (SCK) mode at 25° C. Flow cell coated with the Fc-binding peptide only served as reference flowcell. After each SCK run, carbonic andydrase IX was removed with 10 mM glycine buffer, pH 1.5.
In between every three SCK measurements, a blank run with Running Buffer instead of test compound was included to correct for baseline drifts (double blanking methods).
Table 11 describes the protocol steps for Fc-fusion target capturing and assessment of the binding kinetics.
For each test compound, SPR raw data in the form of resonance units (RU) were plotted as sensorgrams using the Biacore™ T200 control software. The signal from the blank sensorgram was subtracted from that of the test compound sensorgram (blank corrected). The blank corrected sensorgram was corrected for baseline drift by subtracting the sensorgram of a SCK run without the test compound (running buffer only). The association rate (kon), dissociation rate (koff), dissociation constant (KD), and t1/2 were calculated from Blank-normalized SPR data using the 1:1 Langmuir binding model from the Biacore™ T200 evaluation software. Raw data and fit results were imported as text files in IDBS. The pKD value (negative decadic logarithm of dissociation constant) was calculated in the IDBS excel template.
For orientation: Surface plasmon resonance follows binding to a sensor surface in real time, without labels.

Where [3] appears, read: FACS binding assay, HT-29 cells, competition with tracer 3BP-2776 (10 nM, biotin-labeled).

Regarding `CC(=O)N[C@@H](CO)C(=O)N[C@@H](Cc1ccc(O)cc1)C(=O)N[C@H]1CSCc2cccc(c2)CSC[C@@H](C(N)=O)NC(=O)[C@H](CCC(=O)NCCCNC(=O)CN2CCN(CC(=O)O)CCN(CC(=O)O)CCN(CC(=O)O)CC2)NC(=O)[C@H](Cc2c[nH]c3ccccc23)NC(=O)[C@H]([C@@H](C)O)NC(=O)[C@H](CC(C)C)NC(=O)[C@H](Cc2c[nH]c3ccccc23)NC(=O)[C@H](CC(=O)O)NC(=O)[C@H]2CCCN2C(=O)[C@H](CCC(=O)O)NC1=O` [3BP-3873] (Ac-SYCE[dP]DWLTWE(NH(CH2)3NHDOTA)C-NH2; linker 3-12 via mXylylene), the IC50 in experiment [1] (FACS competition on HT-29 cells, Tracer ID 3BP-2776 (10 nM, biotin-labeled)) was < 10 nM. In addition, in experiment [2], the “t1/2 category (activity)” value was “B (t1/2 between 5.1 and 15.0 minutes)”; the Kd is < 10 nM.
With `CC(C)C[C@@H]1NC(=O)[C@H](Cc2c[nH]c3ccccc23)NC(=O)[C@H](CC(=O)O)NC(=O)[C@H]2CCCN2C(=O)[C@H](CCC(=O)O)NC(=O)[C@@H](NC(=O)[C@H](CCCN(C)C)NC(=O)[C@@H](NC(=O)CN2CCC(NC(=O)CN3CCN(CC(=O)O)CCN(CC(=O)O)CCN(CC(=O)O)CC3)CC2)C(C)C)CSCc2cccc(c2)CSC[C@@H](C(N)=O)NC(=O)[C@H](CO)NC(=O)[C@H](Cc2c[nH]c3ccccc23)NC(=O)[C@H]([C@@H](C)O)NC1=O` [3BP-4095] ({DOTA}-[X2]V[Orn(Me2)]CE[dP]DWLTWSC-NH2; linker 4-13 via mXylylene), the IC50 in experiment [1] (setting [3]) was < 10 nM. In addition, in experiment [2], the “t1/2 category (activity)” value was “B (t1/2 between 5.1 and 15.0 minutes)”; the Kd is < 10 nM.
Consider `CC(C)C[C@@H]1NC(=O)[C@H](Cc2c[nH]c3ccccc23)NC(=O)[C@H](CC(=O)O)NC(=O)[C@@H](CCCN(C)C)NC(=O)[C@H](CCC(=O)O)NC(=O)[C@@H](NC(=O)[C@H](Cc2ccc(O)cc2)NC(=O)[C@@H](NC(=O)CN2CCC(NC(=O)CN3CCN(CC(=O)O)CCN(CC(=O)O)CCN(CC(=O)O)CC3)CC2)C(C)C)CSCc2cccc(c2)CSC[C@@H](C(N)=O)NC(=O)[C@H](CO)NC(=O)[C@H](Cc2c[nH]c3ccccc23)NC(=O)[C@H]([C@@H](C)O)NC1=O` [3BP-4097] ({DOTA}-[X2]VYCE[dOrn(Me2)]DWLTWSC-NH2; linker 4-13 via mXylylene), for which the IC50 in experiment [1] (setting [3]) is < 10 nM. In experiment [2], the Kd is < 10 nM.
For the compound `CC(C)C[C@@H]1NC(=O)[C@H](Cc2c[nH]c3ccccc23)NC(=O)[C@H](CCO)NC(=O)[C@H]2CCCN2C(=O)[C@H](CCC(=O)O)NC(=O)[C@@H](NC(=O)[C@H](Cc2ccc(O)cc2)NC(=O)[C@@H](NC(=O)CN2CCC(NC(=O)CN3CCN(CC(=O)O)CCN(CC(=O)O)CCN(CC(=O)O)CC3)CC2)C(C)C)CSCc2cccc(c2)CSC[C@@H](C(N)=O)NC(=O)[C@H](CO)NC(=O)[C@H](Cc2c[nH]c3ccccc23)NC(=O)[C@H]([C@@H](C)O)NC1=O` [3BP-4102] ({DOTA}-[X2]VYCE[dP][hSer]WLTWSC-NH2; linker 4-13 via mXylylene), the IC50 in experiment [1] (setting [3]) was < 10 nM. Besides, in experiment [2], the “t1/2 category (activity)” value is on record as “A (t1/2>15.0 minutes)” and the Kd is < 10 nM.
Take `CC(C)C[C@@H]1NC(=O)[C@H](Cc2c[nH]c3ccccc23)NC(=O)[C@H](CC(=O)O)NC(=O)[C@H]2CCCN2C(=O)[C@H](CCC(N)=O)NC(=O)[C@@H](NC(=O)[C@H](Cc2ccc(O)cc2)NC(=O)[C@@H](NC(=O)CN2CCC(NC(=O)CN3CCN(CC(=O)O)CCN(CC(=O)O)CCN(CC(=O)O)CC3)CC2)C(C)C)CSCc2cccc(c2)CSC[C@@H](C(N)=O)NC(=O)[C@H](CO)NC(=O)[C@H](Cc2c[nH]c3ccccc23)NC(=O)[C@H]([C@@H](C)O)NC1=O` [3BP-4104] ({DOTA}-[X2]VYCQ[dP]DWLTWSC-NH2; linker 4-13 via mXylylene): in experiment [1] (setting [3]), the IC50 is < 10 nM. For the same compound, in experiment [2], the “t1/2 category (activity)” value is “B (t1/2 between 5.1 and 15.0 minutes)”; the Kd is < 10 nM.
Turning to `CC(C)C[C@@H]1NC(=O)[C@H](Cc2c[nH]c3ccccc23)NC(=O)[C@H](CC(=O)O)NC(=O)[C@H]2CCCN2C(=O)[C@H](CCC(=O)O)NC(=O)[C@@H](NC(=O)[C@H](CO)NC(=O)[C@@H](NC(=O)CN2CCC(NC(=O)CN3CCN(CC(=O)O)CCN(CC(=O)O)CCN(CC(=O)O)CC3)CC2)C(C)C)CSCc2cccc(c2)CSC[C@@H](C(N)=O)NC(=O)[C@H](CO)NC(=O)[C@H](Cc2c[nH]c3ccccc23)NC(=O)[C@H]([C@@H](C)O)NC1=O` [3BP-4105] ({DOTA}-[X2]VSCE[dP]DWLTWSC-NH2; linker 4-13 via mXylylene), in experiment [1] (setting [3]), the IC50 was < 10 nM. Moreover, in experiment [2], the “t1/2 category (activity)” value is “B (t1/2 between 5.1 and 15.0 minutes)”; the Kd is < 10 nM.
`CC(C)C[C@@H]1NC(=O)[C@H](Cc2c[nH]c3ccccc23)NC(=O)[C@H](CC(=O)O)N(C)C(=O)[C@H]2CCCN2C(=O)[C@H](CCC(=O)O)NC(=O)[C@@H](NC(=O)[C@H](Cc2ccc(O)cc2)NC(=O)[C@@H](NC(=O)CN2CCC(NC(=O)CN3CCN(CC(=O)O)CCN(CC(=O)O)CCN(CC(=O)O)CC3)CC2)C(C)C)CSCc2cccc(c2)CSC[C@@H](C(N)=O)NC(=O)[C@H](CO)NC(=O)[C@H](Cc2c[nH]c3ccccc23)NC(=O)[C@H]([C@@H](C)O)NC1=O` [3BP-4107] ({DOTA}-[X2]VYCE[dP][NMeD]WLTWSC-NH2; linker 4-13 via mXylylene): the IC50 in experiment [1] (setting [3]) is < 10 nM. In experiment [2], the “t1/2 category (activity)” value was “A (t1/2>15.0 minutes)” and the Kd is < 10 nM.
For `CC(C)C[C@@H]1NC(=O)[C@H](Cc2c[nH]c3ccccc23)NC(=O)[C@H](CC(=O)O)NC(=O)[C@@H](CCC(=O)NC[C@H](O)[C@@H](O)[C@H](O)[C@H](O)CO)NC(=O)[C@H](CCC(=O)O)NC(=O)[C@@H](NC(=O)[C@H](Cc2ccc(O)cc2)NC(=O)[C@@H](NC(=O)CN2CCC(NC(=O)CN3CCN(CC(=O)O)CCN(CC(=O)O)CCN(CC(=O)O)CC3)CC2)C(C)C)CSCc2cccc(c2)CSC[C@@H](C(N)=O)NC(=O)[C@H](CO)NC(=O)[C@H](Cc2c[nH]c3ccccc23)NC(=O)[C@H]([C@@H](C)O)NC1=O` [3BP-4119] ({DOTA}-[X2]VYCE[dE](NH(1-deoxy-D-glucityl))DWLTWSC-NH2; linker 4-13 via mXylylene), the IC50 in experiment [1] (setting [3]) was < 10 nM. For the same compound, the Kd in experiment [2] was < 10 nM.
As to `CC(C)C[C@@H]1NC(=O)[C@H](Cc2c[nH]c3ccccc23)NC(=O)[C@H](CC(=O)O)NC(=O)[C@H]2CCCN2C(=O)[C@H](CCC(=O)O)NC(=O)[C@@H](NC(=O)[C@H](Cc2ccc(O)cc2)NC(=O)[C@@H](NC(=O)CN2CCC(NC(=O)CN3CCN(CC(=O)O)CCN(CC(=O)O)CCN(CC(=O)O)CC3)CC2)C(C)C)CSCc2cccc(c2)CSC[C@@H](C(N)=O)NC(=O)[C@H](CO)NC(=O)[C@H](Cc2c[nH]c3ccccc23)NC(=O)[C@H](CCC(=O)NC[C@H](O)[C@@H](O)[C@H](O)[C@H](O)CO)NC1=O` [3BP-4121] ({DOTA}-[X2]VYCE[dP]DWLE(NH(1-deoxy-D-glucityl))WSC-NH2; linker 4-13 via mXylylene), the IC50 in experiment [1] (setting [3]) is < 10 nM. Moreover, in experiment [2], the “t1/2 category (activity)” value is given as “A (t1/2>15.0 minutes)” and the Kd is < 10 nM.
Consider `CC(C)C[C@@H]1NC(=O)[C@H](Cc2c[nH]c3ccccc23)NC(=O)[C@H](CC(=O)O)NC(=O)[C@H]2CCCN2C(=O)[C@H](CCC(=O)O)NC(=O)[C@@H](NC(=O)[C@H](Cc2ccc(O)cc2)NC(=O)[C@@H](NC(=O)CN2CCC(NC(=O)CN3CCN(CC(=O)O)CCN(CC(=O)O)CCN(CC(=O)O)CC3)CC2)C(C)C)CSCc2cccc(c2)CSC[C@@H](C(N)=O)NC(=O)[C@H](CCC(=O)NC[C@H](O)[C@@H](O)[C@H](O)[C@H](O)CO)NC(=O)[C@H](Cc2c[nH]c3ccccc23)NC(=O)[C@H]([C@@H](C)O)NC1=O` [3BP-4122] ({DOTA}-[X2]VYCE[dP]DWLTWE(NH(1-deoxy-D-glucityl))C-NH2; linker 4-13 via mXylylene), for which the IC50 in experiment [1] (setting [3]) is < 10 nM. Besides, in experiment [2], the “t1/2 category (activity)” value was “A (t1/2>15.0 minutes)” and the Kd is < 10 nM.
